Laboratory results taken from publication PMC10607708 (Journal of natural products, 2021).
Like-named read-outs stand apart in the source and are kept apart here. Each block holds one compound with its values, some of them ahead of it.

Experiments:
[1] = test system: PGE2; assay: PGE2 assay in LPS-stimulated SCC-9 cells; assay type: cell-based; details: LC-MS/MS
[2] = assay type: in vivo, C57BL/6 mice; details: for bioavailability: C57BL/6, mouse, whole blood, ip, 500 mg/kg; for AUC0-t /Dose / Cmax/Dose: blood
[3] = Saliva levels after intraperitoneal administration of ATB; assay type: in vivo, C57BL/6 mice; details: for detection in mouse saliva: i.p. 500 mg/kg ATB q.d., 7 consecutive days
[4] = test system: Cal-27; assay: MTT anti-proliferation assay in Cal-27 cells; assay type: cell-based; details: in words
[5] = Pharmacokinetics after i.v. administration of ATB, blood; assay type: in vivo, C57BL/6 mice; details: 500 mg/kg ATB IV, matrine dosage 2.79 mg/kg
[6] = Pharmacokinetics after oral administration of ATB or pure KACs, blood; assay type: in vivo, C57BL/6 mice; details: for AUC0-t /Dose / Cmax/Dose: blood
[7] = Stability in saliva; assay type: in vitro ADME
[8] = test system: salivary gland adenoid cystic carcinoma cells (ACC-M); details: in vitro; cited from earlier work
[9] = 5 mg/kg KAC Oral (pure compound), matrine dosage 5.00 mg/kg
[10] = 100 mg/kg ATB Oral, matrine dosage 0.56 mg/kg
[11] = 500 mg/kg ATB Oral, matrine dosage 2.79 mg/kg
[12] = 4000 mg/kg ATB Oral, matrine dosage 22.32 mg/kg
[13] = 500 mg/kg ATB IP Day 1, matrine dosage 2.79 mg/kg
[14] = 500 mg/kg ATB IP Day 7, matrine dosage 2.79 mg/kg
[15] = saliva, 500 mg/kg ATB IP Day 7, matrine dosage 2.79 mg/kg

bioavailability [2]: 2.8 ± 2.1%
detection in mouse saliva [3]: no Frax or Maac detected
Compound: CC1=C2C(=O)O[C@@H](c3ccoc3)[C@]2(C)CCC1 [Fraxinellone, fraxinellone]
inhibition of PGE2 production ([1]; 25 μM): significant inhibition

bioavailability [2]: 4.8 ± 4.2%
detection in mouse saliva [3]: no Frax or Maac detected
Compound: Oc1ccc2c(c1)OCC1c3cc4c(cc3OC21)OCO4 (stereo not shown) [Maackiain, maackiain]

Compound: O=C1CCC[C@@H]2[C@H]3CCCN4CCC[C@@H](CN12)[C@@H]34 [Matrine, matrine]
inhibition effect against Cal-27 cells [4]: moderate inhibition effect
inhibition of PGE2 production ([1]; 50 μM): significant inhibition
AUC0-t /Dose [5]: 1830.0 ± 1241.2 (hr*ng/mL)/(mg/kg)
Cmax/Dose [5]: 1408.3 ± 835.8 (ng/mL)/(mg/kg)
AUC0-t /Dose [6, 9]: 46.9 ± 13.0 (hr*ng/mL)/(mg/kg)
Cmax/Dose [6, 9]: 22.0 ± 7.4 (ng/mL)/(mg/kg)
AUC0-t /Dose [6, 10]: 58.5 ± 32.7 (hr*ng/mL)/(mg/kg)
Cmax/Dose [6, 10]: 25.9 ± 20.5 (ng/mL)/(mg/kg)
AUC0-t /Dose [6, 11]: 43.1 ± 21.3 (hr*ng/mL)/(mg/kg)
Cmax/Dose [6, 11]: 19.3 ± 10.2 (ng/mL)/(mg/kg)
AUC0-t /Dose [6, 12]: 164.1 ± 60.0 (hr*ng/mL)/(mg/kg)
Cmax/Dose [6, 12]: 31.8 ± 10.6 (ng/mL)/(mg/kg)
increase of dose-normalized AUC ([6]; oral ATB, from 500 mg/kg to 4000 mg/kg): ~ 400%
bioavailability [2]: 28.9 ± 11%
AUC0-t /Dose [2, 13]: 528.7 ± 200.9 (hr*ng/mL)/(mg/kg)
Cmax/Dose [2, 13]: 292.4 ± 147.8 (ng/mL)/(mg/kg)
AUC0-t /Dose [2, 14]: 592.0 ± 434.7 (hr*ng/mL)/(mg/kg)
Cmax/Dose [2, 14]: 197.8 ± 144.1 (ng/mL)/(mg/kg)
accumulation in the body after multiple-dose administration ([2]; in words, Fig 5): no accumulation
AUC(0-t) ([3]; C57BL/6, mouse, saliva, ip, 500 mg/kg): 2680 ± 1660 ng·h/mL
detection in mouse saliva [3]: detected
AUC0-t /Dose [3, 15]: 952.8 ± 594.4 (hr*ng/mL)/(mg/kg)
Cmax/Dose [3, 15]: 1533.9 ± 823.5 (ng/mL)/(mg/kg)
stability in saliva ([7]; room temperature): 4 h
stability in saliva ([7]; −20 °C): 170 h
effect on adhesion and invasion properties of ACC-M cells [8]: inhibit
